In publication PMC4297936 (Redox Biology, 2014) one finds IC50 and inhibition data, which are given here for three molecules.

Assay [1] addresses mitochondrial complex II (succinate: ubiquinone oxidoreductase) (Mus musculus, UniProt Q8K2B3+Q9CQA3+Q9CXV1+Q9CZB0). The assay can be described thus: succinate: ubiquinone oxidoreductase activity, DCPIP reduction. The class given is biochemical.
In assay [2] the target is T1, mitochondrial complex I (NADH: ubiquinone oxidoreductase) (Mus musculus, UniProt P03888+Q91WD5+Q9DC70). Put plainly: NADH: ubiquinone oxidoreductase activity. It is filed as cell-based. The following applies: read-out: % inhibition at 20 μM.
Assay [3] deals with T1, mitochondrial complex I (NADH: ubiquinone oxidoreductase). The assay can be described thus: NADH: ubiquinone oxidoreductase activity. It is filed as biochemical.

Structures are written as SMILES. pIC50: −log10 of the molar value.

Chain of mitochondrial complex II (succinate: ubiquinone oxidoreductase) (Q8K2B3 43-664): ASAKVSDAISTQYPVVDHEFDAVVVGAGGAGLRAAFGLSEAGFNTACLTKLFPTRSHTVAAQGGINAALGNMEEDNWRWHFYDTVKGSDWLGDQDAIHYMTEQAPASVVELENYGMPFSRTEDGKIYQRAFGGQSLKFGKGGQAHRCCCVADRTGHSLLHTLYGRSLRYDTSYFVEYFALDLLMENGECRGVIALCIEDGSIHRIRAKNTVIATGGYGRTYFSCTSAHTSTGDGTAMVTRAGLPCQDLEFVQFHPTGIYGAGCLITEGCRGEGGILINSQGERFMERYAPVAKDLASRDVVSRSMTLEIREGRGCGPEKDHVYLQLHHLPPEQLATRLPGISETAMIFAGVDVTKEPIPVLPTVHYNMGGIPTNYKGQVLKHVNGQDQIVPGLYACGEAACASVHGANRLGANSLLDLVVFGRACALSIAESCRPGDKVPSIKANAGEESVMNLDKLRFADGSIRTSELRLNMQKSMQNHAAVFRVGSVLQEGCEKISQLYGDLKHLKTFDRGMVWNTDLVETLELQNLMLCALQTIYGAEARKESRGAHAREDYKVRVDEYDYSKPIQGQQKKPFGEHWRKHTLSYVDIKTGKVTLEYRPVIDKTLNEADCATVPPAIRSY
Chain of mitochondrial complex II (succinate: ubiquinone oxidoreductase) (Q9CQA3 31-282): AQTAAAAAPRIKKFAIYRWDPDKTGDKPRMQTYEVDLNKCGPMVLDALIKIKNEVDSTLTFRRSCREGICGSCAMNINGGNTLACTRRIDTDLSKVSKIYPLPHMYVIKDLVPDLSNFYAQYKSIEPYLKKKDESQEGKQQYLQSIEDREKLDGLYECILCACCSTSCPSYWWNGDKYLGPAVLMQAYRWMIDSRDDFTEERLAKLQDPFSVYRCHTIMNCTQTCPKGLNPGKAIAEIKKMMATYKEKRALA
Chain of mitochondrial complex II (succinate: ubiquinone oxidoreductase) (Q9CZB0 30-169): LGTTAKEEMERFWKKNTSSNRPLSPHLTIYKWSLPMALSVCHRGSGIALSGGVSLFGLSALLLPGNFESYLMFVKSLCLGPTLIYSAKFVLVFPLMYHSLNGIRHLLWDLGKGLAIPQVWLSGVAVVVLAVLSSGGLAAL
Chain of mitochondrial complex II (succinate: ubiquinone oxidoreductase) (Q9CXV1 57-159): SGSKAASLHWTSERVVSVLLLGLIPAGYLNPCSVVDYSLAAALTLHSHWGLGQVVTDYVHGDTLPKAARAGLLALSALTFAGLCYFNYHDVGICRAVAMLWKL

What is called pIC50 is −log10 of the IC50, conventionally taken in molar units. Higher therefore signals a low IC50. For the molecule `NN` [HzN, hydrazine], the pIC50 in assay [1] was roughly 4.52.
As usually defined, the inhibition is the drop in the measured response relative to a control, in per cent. With `C=C(C)[C@H]1Cc2c(ccc3c2O[C@@H]2COc4cc(OC)c(OC)cc4[C@@H]2C3=O)O1` [ROT, rotenone], the inhibition at 20 µM in assay [2] is roughly 50%.
The molecule `O=C1Nc2ccc(Cl)cc2[C@@](C#CC2CC2)(C(F)(F)F)O1` [EFV, efavirenz] showed a negative-log IC50 (pIC50) in assay [3] of roughly 4.52.
